Data as given in PMC6270263, “Factors Influencing the Antifolate Activity of Synthetic Tea-Derived Catechins” (Molecules, 2013).

What was measured:
[1] = UV-visible absorption spectra at different pH (ionization state); format: physicochemical; conditions: UV-visible spectra; pH range 5.0–9.0 for TMCG and TMECG
Procedure: It has been shown that the protonation state of methotrexate, trimethoprim, and pyrimethamine modulates the binding of these antifolates to DHFRs from several sources. […] The absorbance maximum at 278 nm undergoes a bathochromic displacement to 328 nm, which is greatest at alkaline pH (pH > 9.0).
To determine if the spectral changes in the SYCG and SYECG solutions with pH were due to an irreversible oxidation reaction or to a reversible protonation step, a pH titration experiment was carried out. An alkaline solution of SYCG and SYECG (pH 8.5) was acidified to pH 2.5 by the addition of dilute HCl. A change in the spectra was observed, indicating a reversible protonation reaction. The spectral changes with pH observed in SYCG and SYECG can be attributed to the hydroxyl group para on the ester-bonded gallate moiety. At acidic pH, these derivatives are mainly present as protonated species, whereas at basic pH or values near neutrality, these derivatives evolve toward the deprotonated species, which are stabilized by resonance (Scheme 3). […] As described, an important factor that decreases catechin bioavailability might be their inability to easily cross cellular membranes by passive diffusion. The presence of several hydroxyl groups in these molecules gives them a high hydrophilic character, which increases the difficulty of passing across lipid membranes.
Ultraviolet-visible absorption spectra of catechins at different pHs were recorded on a UV-Vis Perkin-Elmer Lambda-2 spectrophotometer with a spectral bandwidth of 1 nm at a scan speed of 60 nm s^−1. The experiments were performed in the same buffer as described for DHFR binding studies, and the ionic strength remained constant at an optimum value of 0.15 over the pH range that was used. The pH of the reaction was measured before and after the experiment.

[2] = biological target: T1, bovine serum albumin (BSA) (Bos taurus, UniProt P02769); assay: BSA binding by fluorescence quenching
T1 construct: purchased Sigma-Aldrich
Excerpt: Upon progressive additions of various concentrations of EGCG and TMCG to BSA, the emission intensity decreases, as shown in Figure 4(a). The quenching of the fluorescence intensity of BSA implies that the catechins bind at close proximity to the tryptophan and tyrosine residues and that the molecular arrangement of BSA is affected by the interactions. […] The binding constants (KA) for the BSA-EGCG and BSA-TMCG complexes are 1.54 × 10^7 M^−1 and 1.9 × 10^5 M^−1, respectively (Table 4), and their plots are shown in Figure 4(b). […] In light of these findings, it can be reasoned that the binding affinity to BSA is higher for the galloylated catechin than for the methylated one, which emphasises that the three phenolic groups can enhance hydrogen bonding between BSA and EGCG [25].
Fluorescence measurements were made on an automatic scanning Perkin-Elmer LS50B spectrofluorometer with 1.0 cm light path cells equipped with a 150 W xenon (XBO) light source. In all experiments, the fluorescence of BSA (5 × 10^−6 M) in 50 mM phosphate buffer of pH 7.5 was followed by excitation at 280 nm. The binding affinities of EGCG and TMCG with BSA in terms of binding constants were determined using the following equation [25]: log (F0−F)/F = log KA + n log [Q](1) where KA is the binding constant, n is the number of binding sites, F0 is the fluorescence intensity of free BSA and F is the consequent fluorescence upon the addition of catechins (Q). A plot of log (F0-F)/F against log [Q] was used to determine the values of KA and n from the intercept and the slope, respectively.

[3] = tested on: SK-MEL-28 melanoma cell line; assay: MTT cell proliferation assay in melanoma cells; format: cell-based, human; conditions: Homo sapiens, SK-MEL-28, 144 h, SK-MEL-28, after 6 days of treatment; read-out: Half-maximal inhibitory concentration (IC50)
Excerpt: Antifolate compounds are designed to inhibit DHFR and act specifically during DNA and RNA synthesis, making them more toxic to rapidly dividing cells. Recent evidences indicate that tea-catechins and derived compounds could inhibit DHFR and block the folate cycle in cancer cells. Although inhibition of DHFR by these compounds could be a plausible explanation for their antifolate activity, the possibility of these compounds targeting (folate)-enzymes other than DHFR could not be excluded. To determine whether these newly synthetized compounds disrupt the folate cycle in cell culture, we studied their antiproliferative activity in the melanoma cell line SK-MEL-28 (Table 3). Concentration- and time-dependent effects were analyzed using the colorimetric 4,5-(3)-dimethylthiazol-2-yl)-2,5-diphenyltetrazolium bromide (MTT) method.
The human melanoma cell line SK-MEL-28 was obtained from American Type Culture Collection (ATCC, Manassas, VA, USA) and was maintained in Eagles’s Minimum Essential Medium (EMEM) supplemented with 10% (v/v) FBS and antibiotics at 37 °C in a humidified atmosphere containing 7.5% CO2. Cell viability was evaluated using the MTT cell proliferation assay. Cells were evaluated for apoptosis using a cell death detection ELISA (Cell Death Detection ELISAPLUS, Roche Diagnostics, Barcelona, Spain). The principle of this test is the detection of mono- and oligonucleosomes in the cytoplasmic fractions of cell lysates using biotinylated anti-histone and peroxidase-coupled anti-DNA antibodies. The amount of nucleosomes is photometrically quantified at 405 nm by the peroxidase activity retained in the immunocomplexes. Apoptosis was defined as the specific enrichment of mono- and oligonucleosomes in the cytoplasm and was calculated by dividing the absorbance of treated samples with the absorbance of untreated samples after correcting for the number of cells. The induction of apoptosis in each melanoma cell line after a 7 h treatment with 2 μM staurosporin (100% apoptotic cells) was used to calculate the number of apoptotic cells. For these assays, cells were plated in a 96-well plate at a density of 1000–2000 cells/well. Compounds were added once at the beginning of the experiments.

T1 sequence (P02769 25-607): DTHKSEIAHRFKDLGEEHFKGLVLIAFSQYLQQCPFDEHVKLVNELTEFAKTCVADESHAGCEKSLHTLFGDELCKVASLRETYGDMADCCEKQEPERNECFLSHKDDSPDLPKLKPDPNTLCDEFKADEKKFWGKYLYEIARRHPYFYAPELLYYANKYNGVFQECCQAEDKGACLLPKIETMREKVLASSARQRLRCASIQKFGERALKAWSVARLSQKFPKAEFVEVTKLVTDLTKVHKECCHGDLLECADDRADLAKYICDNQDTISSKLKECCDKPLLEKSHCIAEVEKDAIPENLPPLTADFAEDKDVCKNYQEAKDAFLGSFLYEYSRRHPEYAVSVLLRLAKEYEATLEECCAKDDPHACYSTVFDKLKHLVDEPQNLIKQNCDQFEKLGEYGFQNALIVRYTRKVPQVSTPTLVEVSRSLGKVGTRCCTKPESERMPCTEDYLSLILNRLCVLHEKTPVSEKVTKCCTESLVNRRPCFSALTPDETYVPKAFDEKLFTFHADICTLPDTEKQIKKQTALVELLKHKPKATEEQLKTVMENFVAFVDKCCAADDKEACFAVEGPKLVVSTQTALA

In the case of `COc1cc(C(=O)O[C@H]2Cc3c(O)cc(O)cc3O[C@@H]2c2ccc(O)c(O)c2)cc(OC)c1OC` [TMCG], the “Effect of pH on absorption spectra” value [1] is reported as “no significant changes”, the Kd ([2]; 25 °C, pH 7.5, no site marker, read-out: Binding constant (KA) for BSA-catechin complex (converted)) is reported as 5.26 µM and the “Number of binding sites n” value ([2]; catechin-BSA complex, double logarithmic plot) is reported as “approximately 1”. It also gave an IC50 [3] of 1.5 ± 0.4 µM.
